Results from PubChem BioAssay (NCI).
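Grown in 96-well plates, cells were treated for 48 hours with each compound at five concentrations. Insufficient inhibition: endpoint recorded as highest concentration tested. TGI: total growth inhibition.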

Legend:
Test in all cases: NCI anticancer screen, dose series, 48 h
[1] = tested on: 786-0 renal
[2] = tested on: A498 renal
[3] = tested on: A549 NSCLC
[4] = tested on: CAKI-1 renal
[5] = tested on: CCRF-CEM leukemia
[6] = tested on: COLO 205 colon
[7] = tested on: DLD-1 colon
[8] = tested on: DMS 114 small cell lung
[9] = tested on: DMS 273 small cell lung
[10] = tested on: EKVX NSCLC
[11] = tested on: HCC-2998 colon
[12] = tested on: HCT-116 colon
[13] = tested on: HCT-15 colon
[14] = tested on: HL-60(TB) leukemia
[15] = tested on: HOP-62 NSCLC
[16] = tested on: HT29 colon
[17] = tested on: IGROV1 ovarian
[18] = tested on: K-562 leukemia
[19] = tested on: KM12 colon
[20] = tested on: KM20L2 colon
[21] = tested on: LOX IMVI melanoma
[22] = tested on: LXFL 529 NSCLC
[23] = tested on: M14 melanoma
[24] = tested on: M19-MEL melanoma
[25] = tested on: MALME-3M melanoma
[26] = tested on: MOLT-4 leukemia
[27] = tested on: NCI-H23 lung
[28] = tested on: NCI-H460 lung
[29] = tested on: NCI-H522 lung
[30] = tested on: OVCAR-3 ovarian
[31] = tested on: OVCAR-4 ovarian
[32] = tested on: OVCAR-5 ovarian
[33] = tested on: OVCAR-8 ovarian
[34] = tested on: RPMI-8226 leukemia
[35] = tested on: SF-268 CNS
[36] = tested on: SF-295 CNS
[37] = tested on: SF-539 CNS
[38] = tested on: SK-MEL-2 melanoma
[39] = tested on: SK-MEL-28 melanoma
[40] = tested on: SK-MEL-5 melanoma
[41] = tested on: SK-OV-3 ovarian
[42] = tested on: SN12C renal
[43] = tested on: SNB-19 CNS
[44] = tested on: SNB-75 CNS
[45] = tested on: SNB-78 CNS
[46] = tested on: SW-620 colon
[47] = tested on: TK-10 renal
[48] = tested on: U251 CNS
[49] = tested on: UACC-257 melanoma
[50] = tested on: UACC-62 melanoma
[51] = tested on: UO-31 renal
[52] = tested on: XF 498 CNS
[53] = tested on: ACHN renal
[54] = tested on: HOP-18 NSCLC
[55] = tested on: HOP-92 NSCLC
[56] = tested on: NCI-H226 lung
[57] = tested on: SR leukemia

Structure (SMILES): COc1ccccc1NC(=O)CC(=O)n1nc(C)c(N=Nc2ccccc2C(=O)O)c1C
- TGI [1]: > 100 µM
- TGI [2]: > 100 µM
- TGI [3]: > 100 µM
- TGI [4]: > 100 µM
- TGI [5]: > 100 µM
- TGI [6]: > 100 µM
- TGI [7]: > 100 µM
- TGI [8]: > 100 µM
- TGI [9]: > 100 µM
- TGI [10]: 83.5 µM
- TGI [11]: > 100 µM
- TGI [12]: > 100 µM
- TGI [13]: > 100 µM
- TGI [14]: > 100 µM
- TGI [15]: > 100 µM
- TGI [16]: > 100 µM
- TGI [17]: > 100 µM
- TGI [18]: > 100 µM
- TGI [19]: > 100 µM
- TGI [20]: > 100 µM
- TGI [21]: > 100 µM
- TGI [22]: > 100 µM
- TGI [23]: > 100 µM
- TGI [24]: > 100 µM
- TGI [25]: > 100 µM
- TGI [26]: > 100 µM
- TGI [27]: > 100 µM
- TGI [28]: > 100 µM
- TGI [29]: > 100 µM
- TGI [30]: > 100 µM
- TGI [31]: > 100 µM
- TGI [32]: > 100 µM
- TGI [33]: > 100 µM
- TGI [34]: > 100 µM
- TGI [35]: > 100 µM
- TGI [36]: > 100 µM
- TGI [37]: > 100 µM
- TGI [38]: > 100 µM
- TGI [39]: > 100 µM
- TGI [40]: > 100 µM
- TGI [41]: > 100 µM
- TGI [42]: > 100 µM
- TGI [43]: > 100 µM
- TGI [44]: > 100 µM
- TGI [45]: > 100 µM
- TGI [46]: > 100 µM
- TGI [47]: > 100 µM
- TGI [48]: > 100 µM
- TGI [49]: > 100 µM
- TGI [50]: > 100 µM
- TGI [51]: > 100 µM
- TGI [52]: > 100 µM

Structure (SMILES): C=CCc1cc(OC)c2c(c1)C(O)CC(c1ccc(OC)c(OC)c1)O2 (centres undefined)
- TGI [1]: > 100 µM
- TGI [3]: > 100 µM
- TGI [53]: > 100 µM
- TGI [4]: > 100 µM
- TGI [5]: > 100 µM
- TGI [6]: > 100 µM
- TGI [7]: > 100 µM
- TGI [8]: > 100 µM
- TGI [9]: > 100 µM
- TGI [10]: > 100 µM
- TGI [11]: > 100 µM
- TGI [12]: > 100 µM
- TGI [13]: > 100 µM
- TGI [14]: > 100 µM
- TGI [54]: > 100 µM
- TGI [15]: > 100 µM
- TGI [55]: > 100 µM
- TGI [16]: > 100 µM
- TGI [17]: > 100 µM
- TGI [18]: > 100 µM
- TGI [19]: > 100 µM
- TGI [20]: > 100 µM
- TGI [22]: > 100 µM
- TGI [23]: > 100 µM
- TGI [24]: > 100 µM
- TGI [26]: > 100 µM
- TGI [56]: > 100 µM
- TGI [27]: > 100 µM
- TGI [28]: > 100 µM
- TGI [29]: > 100 µM
- TGI [30]: > 100 µM
- TGI [31]: > 100 µM
- TGI [32]: > 100 µM
- TGI [33]: > 100 µM
- TGI [35]: > 100 µM
- TGI [36]: > 100 µM
- TGI [37]: > 100 µM
- TGI [38]: > 100 µM
- TGI [39]: > 100 µM
- TGI [40]: > 100 µM
- TGI [41]: > 100 µM
- TGI [42]: > 100 µM
- TGI [43]: > 100 µM
- TGI [44]: > 100 µM
- TGI [45]: > 100 µM
- TGI [57]: > 100 µM
- TGI [46]: > 100 µM
- TGI [47]: > 100 µM
- TGI [48]: > 100 µM
- TGI [49]: > 100 µM
- TGI [50]: > 100 µM
- TGI [51]: > 100 µM
